This note sets out measurements from patent US10111847B2, “Compounds and methods for modulating vascular injury” (The Regents of the University of California, priority 2012, dated 2018).

For assay [1], the system named is human saphenous vein vascular smooth muscle (sv-VSMC) cells. Briefly: TNFα induced superoxide production (DHE) in sv-VSMC (Maresin-1). The settings on record: 100 nM; TNFα 10 ng/ml 4 hr. In kind it is cell-based. The protocol:
(§1) Mar-1. Cells were grown in 8-well chamber slides at a density of 15000 cells/well for 2 days for VSMCs and 50000 cells/well for 2 days for ECs in a 96 well plate. After treatments, cells were incubated with dihydroethidium (DHE, 3 μM, Invitrogen) or CellRox (Invitrogen Inc, 5 μM for ECs) in media for 30 minutes at 37° C. in a humidified chamber with 5% CO2 protected from light. DAPI nuclear counter staining was utilized for DHE staining. For DHE, fluorescence was detected with TRITC filter allowing the detection of the DHE emission wavelength of 590-620 nm. Fluorescence quantitation was performed using ImageJ analysis software. For ECs, fluorescence measurements were taken using a Spectramax M2e plate reader.
(§2) FIGS. 13A-13D. Representative merged images of DHE staining, counterstained with DAPI. (A), Negative control. (B), TNFα at 10 ng/ml for 4 hr. […] (E) Quantitative comparison of DHE staining intensity in the nucleus of human saphenous vein vascular smooth muscle (sv-VSMC) cells, treated with TNFα and 7S and 7R-Maresin-1 with and without pertussis toxin. (F) Quantitative comparison of cellular ROS production by CellRox (Life technologies, Carlsbad, Calif.) in human saphenous vein endothelial (EC) cells treated with TNFα (1 ng/nil) and 7S-Maresin-1 (N>=3). […]

Assay [2] deals with human saphenous vein endothelial (EC) cells. Briefly: TNFα induced cellular ROS production (CellRox) in EC (Maresin-1). Type of assay: cell-based. The settings on record: TNFα 1 ng/ml. The protocol: as §1, §2
Assay [3] deals with p65 subunit. Briefly: Nuclear translocation of p65 subunit in sv-VSMCs (immunofluorescence). Type of assay: cell-based, human. The settings on record: 100 nm, 30 min; TNFα 10 ng/ml 2 hrs. How it is done: Immunofluorescence for p65 (RelA): 15000 VSMCs or 30000 ECs were seeded on a 8-well chamber slide. Cells received 30 min of Maresin-1 pretreatment, followed by TNF-α for 2 hr. Cells were fixed in 2% paraformaldehyde, followed by permeabilization with ice-cold acetone (10 min) and 1% Triton X-100 (20 min). Cells were incubated overnight in a humidified chamber with anti-p65 antibody (Santa Cruz Biotechnology Inc.) followed by Alexa-fluor 488 tagged secondary antibody (Life Technologies) and were visualized under a fluorescent microscope.
FIGS. 16A-16D. VSMCs were grown in chamber slides and treated with vehicle or 100 nm of 7S or 7R-Maresin-1 with/without 10 ng/ml pertussis toxin for 30 min, followed by TNFα (10 ng/ml) for 2 hrs. Cells were fixed and subsequently stained with anti-p65 (Santa Cruz Biotechnology) and secondary antibodies (Alexa-488). (A-D) Representative images of Ctrl (A), TNFα (B), 7R-Maresin-1+TNFα (C) and 7R-Maresin-1+pertussis toxin (10 ng/ml)+TNFα. (E) Mean fluorescence of nucleus and cytoplasm were quantified from all groups and the net result of the ratio of nucleus over cytoplasmic mean fluorescence is depicted in the bar graph, as a measure of relative p65 nuclear translocation. (N>=3). […]

Assay [4] has as its system inflammatory mediators. The experiment in a line: Inflammation cytokine array of conditioned medium from sv-ECs. The settings on record: 100 nm, 30 min; TNF α 1 ng/ml 18 hrs. Type of assay: cell-based, human. The protocol:
Media was collected and incubated for 2 hr with the inflammation array membranes. The cells were harvested for protein estimation for normalization purposes. The membranes were washed following instruction protocol supplied by the manufacturer (Raybiotech Inc., Norcross, Ga.) and probed with biotinylated anti-cytokine antibody cocktail (provided by the manufacturer) for 2 hrs. The membranes were again washed with appropriate buffers provided by the manufacturer and incubated for 2 hrs with HRP-conjugated streptavidin, followed by chemiluminescence based detection of signal by Chemidoc (Biorad Inc.)
Inflammatory signals are amplified by autocrine and paracrine pathways that include the elaboration of pro-inflammatory mediators into the local extracellular milieu. Cells grown in 6 cm dish were serum starved for 24 hrs. The cells were then pre-treated with 100 nm 7S-Maresin-1 for 30 min followed by 18 hrs of TNF α (1 ng/ml). Cell culture media was collected and incubated with human inflammation cytokine array membranes (AAH-INF-3-4, Raybiotech Inc.), coated with antibodies (in duplicate) recognizing 40 different inflammatory mediators.
FIGS. 19A-19C. (A, B) Representative membrane images from a set of three pairs. (C) Densitometric quantitation of each of the attenuated inflammatory mediators in three independent experiments was performed and is represented in the bar graph. […]

Assay [5] deals with carotid artery. The experiment in a line: Mouse carotid artery ligation model, neointima formation. Type of assay: in vivo, FVB Mice. The settings on record: intraperitoneal 100 ng/dose on days 0, 1, 3, 5 and 7; sacrificed at 14 days. How it is done: To examine the potential therapeutic effects of systemic administration of pro-resolving mediators in acute vascular injury, a standardized mouse model of carotid ligation was employed. FVB Mice (N=23) were treated with intraperitoneal administration of RvD2 (100 ng/dose), 7R Mar-1 (100 ng/dose) or vehicle on days 0 (4 hrs prior to carotid injury), 1, 3, 5 and 7. Total dose received was 500 ng/mouse. Unilateral carotid ligation was performed as a standardized model of vascular injury, induced by low shear. Animals were then sacrificed at 14 days and perfusion-fixed vessels explanted for analysis. Following elastin staining, neointima (NI) and medial (M) compartments were measured by a blinded observer, and ratios (area and average wall thickness) calculated. Analysis was performed at mid CCA level (2.5 mm from ligature).
FIG. 22. (A)-(C), depict a cross-section of a carotid artery at mid CCA level (2.5 mm from ligature) from carotid ligation mouse model administered vehicle (A), RvD2 (B), or 7R-Mar-1 (C). (D)-(E) depict NUM ratio of the cross-section of the carotid artery at mid CCA level from carotid ligation mouse model administered vehicle, RvD2, or 7R-Mar-1. […]

SMILES strings stand for the structures.

Regarding `CC/C=C\C/C=C\C[C@H](O)\C=C/C=C/C=C/[C@@H](O)C/C=C\CCC(=O)O` [7S-Maresin-1, 7S,14R-dihydroxydocosa-4Z,8E,10Z,12Z,16Z,19Z-hexaenoic acid], the “TNF-α-induced superoxide production in VSMC” value in assay [1] was “significantly reduced”. Also, the “TNF-α-induced superoxide production in EC” value in assay [2] is on record as “significantly reduced”. Moreover, in assay [3], the “nuclear translocation of p65 subunit in human sv-VSMCs” value was “Inhibit”. The “levels of multiple inflammatory mediators in conditioned medium from EC” value in assay [4] is “reduced”.

Consider `CC/C=C\C[C@H](O)[C@H](O)/C=C/C=C/C=C\C=C\[C@@H](O)C/C=C\CCC(=O)O` [RvD2, resolvin D2], for which the “neointima formation following carotid artery ligation” value in assay [5] is “Reduces”.
